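1) Cells in 96-well plates. 2) Compound, 48 h, 5 concentrations. 3) Linear interpolation between surrounding doses. 4) Unreached endpoint = highest concentration. Abbreviation: GI50, concentration required for 50% inhibition of growth.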 Activity calls are given as the source filed them. No stated cut-off is given here; in the data, active = GI50 up to about 1.1 µM and inactive = higher.
Assays:
Experiment in all cases: DTP human tumour cell line panel, 48 h
A498 = test system: A498
A549 = test system: A549
CCRF-CEM = test system: CCRF-CEM
HCT-116 = test system: HCT-116
HT-29 = test system: HT-29
IGROV-1 = test system: IGROV-1
KM12 = test system: KM12
MCF7 = test system: MCF7
Malme-3M = test system: Malme-3M
NCI-H522 = test system: NCI-H522
OVCAR-3 = test system: OVCAR-3
OVCAR-4 = test system: OVCAR-4
RPMI-8226 = test system: RPMI-8226
SK-MEL-5 = test system: SK-MEL-5
SW-620 = test system: SW-620
T47D = test system: T47D
TK-10 = test system: TK-10
UACC-62 = test system: UACC-62
UO-31 = test system: UO-31
SR = test system: SR

| Structure (SMILES) | GI50 (A498) | GI50 (A549) | GI50 (CCRF-CEM) | GI50 (HCT-116) | GI50 (HT-29) | GI50 (IGROV-1) | GI50 (KM12) | GI50 (MCF7) | GI50 (Malme-3M) | GI50 (NCI-H522) | GI50 (OVCAR-3) | GI50 (OVCAR-4) | GI50 (RPMI-8226) | GI50 (SK-MEL-5) | GI50 (SW-620) | GI50 (T47D) | GI50 (TK-10) | GI50 (UACC-62) | GI50 (UO-31) | GI50 (SR) |
| --- | --- | --- | --- | --- | --- | --- | --- | --- | --- | --- | --- | --- | --- | --- | --- | --- | --- | --- | --- | --- |
| COc1ccc2nc(NCN3C(=O)c4ccccc4C3=O)sc2c1 | > 100 µM (inactive) | > 100 µM (inactive) | > 100 µM (inactive) | > 100 µM (inactive) | > 100 µM (inactive) | > 100 µM (inactive) | > 100 µM (inactive) | > 100 µM (inactive) | > 100 µM (inactive) | > 100 µM (inactive) | > 100 µM (inactive) | > 100 µM (inactive) | > 100 µM (inactive) | > 100 µM (inactive) | > 100 µM (inactive) | > 100 µM (inactive) | > 100 µM (inactive) | > 100 µM (inactive) | > 100 µM (inactive) |  |
| O=C(N/N=C/c1ccc([N+](=O)[O-])cc1)Nc1ccc(Br)cc1 |  | > 100 µM (inactive) | 23.4 µM (inactive) | 45.8 µM (inactive) | 97.1 µM (inactive) | 55.5 µM (inactive) | > 100 µM (inactive) | 34 µM (inactive) | > 100 µM (inactive) | 64.7 µM (inactive) | 32.2 µM (inactive) | 49 µM (inactive) | 28.1 µM (inactive) | 51.6 µM (inactive) | 52 µM (inactive) | 36.1 µM (inactive) | > 100 µM (inactive) | 15.3 µM (inactive) | > 100 µM (inactive) | 43.2 µM (inactive) |
| O=C1NC(=O)c2ccc([N+](=O)[O-])c3cccc1c23 | 13.2 µM (inactive) | 20.8 µM (inactive) |  | 11.7 µM (inactive) | 16 µM (inactive) | 15.9 µM (inactive) |  | 11.2 µM (inactive) |  | 2.01 µM (inactive) |  | 20 µM (inactive) | 14.5 µM (inactive) | 18.9 µM (inactive) | 13 µM (inactive) | 18.6 µM (inactive) | 19.6 µM (inactive) | 13.9 µM (inactive) | 16.3 µM (inactive) |  |
| Cc1ccc(C(=O)/C=C2\Nc3ccccc3N=C2NC23CC4CC(CC(C4)C2)C3)cc1 |  | > 10 µM (inactive) | 1 µM (active) | > 10 µM (inactive) | > 10 µM (inactive) | > 10 µM (inactive) | > 10 µM (inactive) | > 10 µM (inactive) | > 10 µM (inactive) | > 10 µM (inactive) | > 10 µM (inactive) | 7.66 µM (inactive) | > 10 µM (inactive) | > 10 µM (inactive) | 7.24 µM (inactive) | > 10 µM (inactive) | > 10 µM (inactive) | > 10 µM (inactive) |  | > 10 µM (inactive) |
| CC(C)NC(=O)OCCN=c1c2ccccc2ccc2ccccc12 |  | 29.3 µM (inactive) | 21 µM (inactive) | 34.7 µM (inactive) | 39.2 µM (inactive) | 47.5 µM (inactive) | 44.7 µM (inactive) | 44.9 µM (inactive) | 46.1 µM (inactive) |  | 34.4 µM (inactive) | 33.9 µM (inactive) | > 10 µM (inactive) | 17.6 µM (inactive) | 64.1 µM (inactive) | 15.6 µM (inactive) | 50.7 µM (inactive) | 31.4 µM (inactive) | 23.5 µM (inactive) | 24.8 µM (inactive) |
| CCOC(=O)c1c2ccccc2n2c(=O)n(C)nnc12 | > 100 µM (inactive) | > 100 µM (inactive) | > 100 µM (inactive) | > 100 µM (inactive) |  | > 100 µM (inactive) | > 100 µM (inactive) | > 100 µM (inactive) | > 100 µM (inactive) |  | > 27.9 µM (inactive) | > 100 µM (inactive) | > 100 µM (inactive) | > 100 µM (inactive) | > 100 µM (inactive) | > 100 µM (inactive) | > 75.5 µM (inactive) | > 100 µM (inactive) | > 100 µM (inactive) |  |
| O=c1[nH]c(=O)n(C2CC(O)C(CO)O2)cc1/N=N/NCc1ccccc1 (stereo unspecified) |  | > 100 µM (inactive) | > 100 µM (inactive) | > 100 µM (inactive) | > 100 µM (inactive) | > 100 µM (inactive) | > 100 µM (inactive) | > 100 µM (inactive) | > 100 µM (inactive) | > 100 µM (inactive) | > 100 µM (inactive) | > 100 µM (inactive) |  | > 100 µM (inactive) |  | > 100 µM (inactive) | > 100 µM (inactive) | > 100 µM (inactive) | > 100 µM (inactive) | > 100 µM (inactive) |
| O=P(O)(O)c1ccc(-c2ccc(I)cc2)cc1 |  | > 100 µM (inactive) | > 100 µM (inactive) | > 100 µM (inactive) | > 100 µM (inactive) | > 100 µM (inactive) | > 100 µM (inactive) | > 100 µM (inactive) | > 100 µM (inactive) | > 100 µM (inactive) |  | > 100 µM (inactive) | > 100 µM (inactive) | > 100 µM (inactive) | > 100 µM (inactive) | > 100 µM (inactive) | > 100 µM (inactive) | > 100 µM (inactive) | > 100 µM (inactive) | > 100 µM (inactive) |

— ChEMBL document CHEMBL1201862, “PubChem BioAssay data set” (2004)
